Reference: patent US20250134860A1, “NOVEL COMPOUND, AND COMPOSITION FOR PREVENTING, ALLEVIATING OR TREATING BACTERIAL INFLAMMATION AND INFLAMMASOME-MEDIATED DISEASES, COMPRISING SAME AS ACTIVE INGREDIENT” (Quorum Bio Co., Ltd., priority 2022, published 2025)

Legend:
[1] = tested on: mouse bone marrow-derived macrophages; experiment: Cytotoxicity in mouse bone marrow-derived macrophages (MTT); type: cell-based; details: at a concentration of 16 μM or less (0.5-16 μM tested), 24 hours
Protocol: Bone marrow was isolated from the femur and tibia of 8-12 week old C57BL/6J mice (available from Daehan Biolink) using a 26 g syringe, and the isolated bone marrow was differentiated into macrophages by culturing a medium containing IMDM media+30% L929 cell supernatant+10% fetal bovine serum+1% pencillin/streptomycin+1% non-essential amino acid+1% sodium pyruvate in a 150TT cell culture plate for 6 days, and used for the experiment.
The differentiated macrophages were seeded in 200 μl increments in a 48-well plate at a concentration of 1×10^6 cell/ml, and stabilized at 37° C. and 5% CO2 for 12 hours. […]
Then, the supernatant of the cultured cells was removed, treated with 200 μl of MTT solution having a concentration of 400 μg/ml, and then reacted at […] and 5% CO2 for 4 hours. Then, the reaction solution was removed, 200 μl of DMSO was added, and the absorbance was measured at 570 nm. At this time, the viability of cells treated with the sample was calculated based on the viability of untreated cells considered as 100%, and is shown in FIG. 6. […]
The supernatant of the cultured cells was then removed, 200 μl of MTT solution having a concentration of 400 μg/ml was added, and then reacted at […] and 5% CO2 for 4 hours. Then, the reaction solution was removed, 200 μl of DMSO was added, and the absorbance was measured at 570 nm. […]

P. aeruginosa = experiment: Inhibitory effect on biofilm formation in P. aeruginosa; type: cell-based, Pseudomonas aeruginosa; details: 0.006, 0.06, 0.6 μg/ml; 48 hours; compared with control (CT)
Protocol: The inhibitory effect of the compound of Example 1-2 on biofilm formation in P. aeruginosa (available from the Korean Collection for Oral Microbiology (KCOM)) and A. baumannii (available from the Korea Culture Center of Microorganisms (KCCM)) was confirmed.
Sterilized cover glass slips (round, 12 mm radius) were placed individually at a bottom of each well of a cell culture plate (24-well plate) using forceps, and the compound of Example 1-2 was diluted in the medium (P. aeruginosa: LB medium, A. baumannii: NB medium) cultured with bacteria so that the final concentrations were 0.006 μg/ml, 0.06 μg/ml, and 0.6 μg/ml.
The prepared culture medium was dispensed into a cell culture plate in which glass slips were placed, and the respective bacteria were inoculated to a concentration of 2×10^7 cells/ml. […]
The biofilm in which bacteria cultured for each group were formed on glass slips was stained with 1% crystal violet solution for 15 minutes, and then washed three times with PBS (phosphate buffered saline) solution, and decolorized with acetone-alcohol (20:80, vol/vol). After the decolorizing solution containing crystal violet was put in 200 μl increments in a 96-well microplate for each group, the absorbance (OD590nm) was measured using an absorbance microplate reader (Epoch2, Bio-Tek, USA), and the biofilm formation level was compared.

[2] = tested on: Sprague-Dawley rat bone marrow cells; experiment: Rat micronucleus test; details: rat, in vivo
Protocol: Hair was removed from the administration site (subcutaneous) of the SD rats, the administration concentration of the example compounds were set to a low dose (500 mg/kg/day), a medium dose (1000 mg/kg/day), and a high dose (2000 mg/kg/day), and administered subcutaneously to the left and right […] of the test system (10 ml/kg/day each), and the compound was administered subcutaneously in divided doses to the left and right […] of the test system (10 ml/kg/day each).
24 hours after the second administration of the test substance, the femur was removed from each group to collect bone marrow cells. 0.5 mL of 10% neutral formalin was added to the bone marrow cell suspension, fixed for 5 minutes, centrifuged for 5 minutes (4° C., 1,000 rpm, Micro17TR, Hanil Science Industrial, Republic of Korea) to remove the supernatant. Then, 0.3 mL of 10% neutral formalin was added to the precipitated bone marrow cells, suspended, filtered through a cell strain, and transferred to a storage tube. The fixed bone marrow cell suspension was dropped onto a cover glass, and then covered with a slide glass coated with 20 μL of 0.05% acridine orange to prepare an observation slide. The observation slide was observed under a microscope (600× magnification, BX51, Olympus, Japan).
As an indicator of bone marrow cell proliferation inhibition, 500 total red blood cells per individual were observed, and the ratio of polychromatic red blood cells to total red blood cells (PCE/(PCE+NCE)) was calculated. As a positive control, cyclophosphamide (Cas No: 50-18-0) was administered at a dose of 20 mg/kg/day.

For `Cc1ccc(C(=C2c3ccccc3C(=O)N2C)c2ccc(C)cc2)cc1` [Example 1-2, 3-(di-p-tolylmethylene)-2-methylisoindolin-1-one], the “cytotoxicity (cell viability, MTT)” value [1] was “did not exhibit cytotoxicity”, the “biofilm formation of P. aeruginosa” value (P. aeruginosa) was “significantly suppressed in a concentration-dependent manner” and the “ratio of polychromatic red blood cells to the total number of red blood cells, relative to negative control” value ([2]; Sprague-Dawley, 24 h) was ≥ 20 % of the negative control. The “appearance frequency of micronucleated polychromatic erythrocytes (MNPCE/PCE) compared to the negative control” value [2] was “did not show a statistically significant difference”.
